The results in this text go back to US5188955A, “Method of preserving arylacylamidase in aqueous solution” (GDS Technology, Inc., priority 1992, dated 1993).

Entries after “also recorded” stand apart in the source; their conditions may differ. Like-named read-outs stand apart in the source and are kept apart here.

What all share (format): biochemical
The test system of series [1] is arylacylamidase. Kind of series: General findings on effect of stabilizers on arylacylamidase.
Series [2] has as its system arylacylamidase E.C. 3.5.1.13. Put plainly: Stability of aqueous arylacylamidase solution at 37° C. with or without o-cresol (Example 1). To be noted: for Remaining enzyme activity: 37° C. On the procedure:
(§1) Arylacylamidase enzyme was dissolved in water containing 50 mM borate buffer at various pH's at widely different concentrations of between 1 and 1500 U/L in the presence of between 1 and 12 mM o-cresol. The same solution of enzyme in buffer was prepared without o-cresol. Both sets of solutions were maintained at 37° C. for a period of two weeks. The enzyme activity was measured at the beginning of the period, as well as at certain times during the two week period. The enzyme activity was determined by a method which uses 50 mM Tris.HCl, pH 8.5, and 1 mM paranitroacetanilide as the enzyme substrate. In the presence of arylacylamidase, the p.nitroacetanilide is hydrolyzed to p-nitroaniline which absorbs at 405 nm. The kinetic assay was performed at 30° C. and 405 nm. One unit of enzyme activity is defined as 1 μ mole of p.nitroaniline formed using p-nitroacetanilide as a substrate at 30° C.

Series [3] deals with arylacylamidase E.C. 3.5.1.13. Kind of series: Stability of arylacylamidase dried on paper strips with or without o-cresol (Example 2). As to conditions: 37° C., two weeks. On the procedure: as §1
Two arylacylamidase aqueous solutions of 100 U/L were prepared in water containing 50 mM borate buffer, pH 8.0, one in the presence of 10 mM o-cresol and one in the absence of o-cresol. Whatman 54 and Whatman 3MM paper strips (2"×12") were impregnated with these solutions and dried. The dried paper strips were stored at 37° C. for two weeks. […] The enzyme activity was measured using the assay described in Example 1.

The test system of series [4] is arylacylamidase E.C. 3.5.1.13. As to conditions: 10 mM Tris-HCl pH 7.0. On the procedure:
as §1
An aqueous solutiOn of arylacylamidase, from about 100-200 U/mL, in 10 mM Tris-HCl buffer, which was maintained at pH 7.0, was lyophilized in the presence of various amounts of sodium benzoate and in the absence of sodium benzoate. After lyophilization, the enzyme samples were dissolved in deionized water to make an aqueous enzyme solution of 100 U/mL of water, and assayed for enzyme activity using the assay described in Example 1.

The test system of series [5] is arylacylamidase E.C. 3.5.1.13. As to conditions: Arylacylamidase 21.6 U/mL with 1 mg/mL sodium benzoate, 10 mM Tris-HCl pH 7.0. How it is done:
as §1
The arylacylamidase was dissolved in an aqueous buffer, such as in 10 mM Tris-HCl, pH 7.0, in the presence of 1 mg/ml sodium benzoate and in the absence of sodium benzoate.
The samples were maintained at 4° C., room temperature, and 37° C. The residual activity was determined using the enzyme assay described in Example 1.

The subject of series [6] is arylacylamidase E.C. 3.5.1.13. As to conditions: 37° C., two weeks.

For the compound `O=C(O)c1ccccc1` [benzoic acid], the “use as substrate / inhibition of arylacylamidase activity” value in series [1] is on record as “neither compound is used by the enzyme as a substrate nor causes inhibition of the activity of arylacylamidase”.
Regarding `Cc1ccccc1O` [o-cresol], the Remaining enzyme activity in series [2] (pH 8.0, 2.8 mM o-cresol, 0 HRS) is on record as 13.6 U/ML; in series [2] (pH 8.0, 2.8 mM o-cresol, 3 DAYS) it was 13.6 U/ML; in series [2] (pH 8.0, 2.8 mM o-cresol, 5 HRS), 13.5 U/ML; in series [2] (pH 8.0, 2.8 mM o-cresol, 7 DAYS) it was 12.3 U/ML; in series [2] (pH 8.0, 2.8 mM o-cresol, 14 DAYS), 11.8 U/ML; in series [2] (pH 8.0, 4.2 mM o-cresol, 0 HRS), 6.25 U/ML. Further, the Remaining enzyme activity in series [2] (pH 8.0, 4.2 mM o-cresol, 3 DAYS) is 6.20 U/ML; in series [2] (pH 8.0, 4.2 mM o-cresol, 5 HRS), 6.16 U/ML; in series [2] (pH 8.0, 4.2 mM o-cresol, 7 DAYS), 5.66 U/ML; in series [2] (pH 8.0, 4.2 mM o-cresol, 14 DAYS), 5.36 U/ML; in series [2] (pH 9.0, 2.2 mM o-cresol, 0 HRS), 13.6 U/ML; in series [2] (pH 9.0, 2.2 mM o-cresol, 3 DAYS), 11.2 U/ML. The Remaining enzyme activity turned out to be 13.7 U/ML in series [2] (pH 9.0, 2.2 mM o-cresol, 5 HRS); 9.26 U/ML in series [2] (pH 9.0, 2.2 mM o-cresol, 7 DAYS); 5.44 U/ML in series [2] (pH 9.0, 2.2 mM o-cresol, 14 DAYS); 6.15 U/ML in series [2] (pH 9.0, 3.75 mM o-cresol, 0 HRS); 5.03 U/ML in series [2] (pH 9.0, 3.75 mM o-cresol, 3 DAYS); 6.20 U/ML in series [2] (pH 9.0, 3.75 mM o-cresol, 5 HRS). Moreover, the Remaining enzyme activity in series [2] (pH 9.0, 3.75 mM o-cresol, 7 DAYS) turned out to be 4.16 U/ML; in series [2] (pH 9.0, 3.75 mM o-cresol, 14 DAYS), 2.36 U/ML. Also, in series [2] (pH 8.0, 14 days at 37° C., 2.8 mM o-cresol), the “activity of aqueous solution of arylacylamidase maintained” value was “over 80%”. Further, the “Residual Activity (Recovery)” value in series [3] (Strips of Whatman 3 MM, 10 mM o-cresol) is 40%; in series [3] (Strips of Whatman 54, 10 mM o-cresol), 70%. Further, the “use as substrate / inhibition of arylacylamidase activity” value in series [1] is “neither compound is used by the enzyme as a substrate nor causes inhibition of the activity of arylacylamidase”. The “effect on stability of the enzyme” value in series [1] (10-100 mg/ml of ortho-cresol) is listed as “enhances the stability of the enzyme”. The “effect on the enzyme” value in series [1] (higher concentrations of ortho-cresol, on the order of about 1%) was “inactivate the enzyme and make it unstable”. Further, the “effect on stability of arylacylamidase” value in series [1] (o-cresol concentrations above about 0.5%) is recorded as “specifically destabilizes arylacylamidase; also recorded: act to destabilize the arylacylamidase enzyme”.
For `O=C(O)c1ccccc1` [sodium benzoate], the “% Recovery After Lyophilization” value in series [4] (1 mM sodium benzoate) worked out at 75%. Also, the “% Recovery After Lyophilization” value in series [4] (5 mM sodium benzoate) was 95%. Also, in series [4] (10 mM sodium benzoate), the “% Recovery After Lyophilization” value is recorded as 104%. In series [5], the “Remaining Activity at 4° C. (8 days)” value is 80%, the “Remaining Activity at 37° C. (1 day)” value is recorded as 85%, the “Remaining Activity at 37° C. (4 days)” value amounted to 30% and the “Remaining Activity at Room Temp (8 days)” value was 71%. The “Residual Activity (Recovery)” value in series [6] (Strips of Whatman 3 MM, 10 mM sodium benzoate) stood at 70%. Also, the “Residual Activity (Recovery)” value in series [6] (Strips of Whatman 54, 10 mM sodium benzoate) is listed as 85%.
